Measured values from PubChem BioAssay (NCI).
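96-well plates; 48 h exposure; 5 concentrations. Endpoints by linear interpolation between flanking doses. Not reached: highest tested concentration assigned. At the GI50, growth is halved. TGI denotes the concentration required for complete inhibition of growth.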

Key:
Assay in all cases: inhibition of tumour cell growth, NCI panel, 48 h; in the data active means GI50 below about 0.43 µM; inactive means the rest
T-47D breast = test system: T-47D breast
ACHN renal = test system: ACHN renal
OVCAR-4 ovarian = test system: OVCAR-4 ovarian
HCC-2998 colon = test system: HCC-2998 colon
786-0 renal = test system: 786-0 renal
KM12 colon = test system: KM12 colon
SN12C renal = test system: SN12C renal
RXF 393 renal = test system: RXF 393 renal
HOP-92 NSCLC = test system: HOP-92 NSCLC
SNB-75 CNS = test system: SNB-75 CNS
UO-31 renal = test system: UO-31 renal
MCF7 breast = test system: MCF7 breast
M14 melanoma = test system: M14 melanoma
UACC-257 melanoma = test system: UACC-257 melanoma
EKVX NSCLC = test system: EKVX NSCLC
NCI/ADR-RES ovarian = test system: NCI/ADR-RES ovarian
SNB-19 CNS = test system: SNB-19 CNS
NCI-H460 lung = test system: NCI-H460 lung
IGROV1 ovarian = test system: IGROV1 ovarian
K-562 leukemia = test system: K-562 leukemia
HT29 colon = test system: HT29 colon
UACC-62 melanoma = test system: UACC-62 melanoma
SF-268 CNS = test system: SF-268 CNS
COLO 205 colon = test system: COLO 205 colon
SR leukemia = test system: SR leukemia
NCI-H522 lung = test system: NCI-H522 lung
NCI-H226 lung = test system: NCI-H226 lung
SK-MEL-2 melanoma = test system: SK-MEL-2 melanoma
HCT-15 colon = test system: HCT-15 colon
SW-620 colon = test system: SW-620 colon
PC-3 prostate = test system: PC-3 prostate
A549 NSCLC = test system: A549 NSCLC
CCRF-CEM leukemia = test system: CCRF-CEM leukemia
MALME-3M melanoma = test system: MALME-3M melanoma
OVCAR-5 ovarian = test system: OVCAR-5 ovarian
CAKI-1 renal = test system: CAKI-1 renal
TK-10 renal = test system: TK-10 renal
HCT-116 colon = test system: HCT-116 colon
HS 578T breast = test system: HS 578T breast
OVCAR-8 ovarian = test system: OVCAR-8 ovarian
MOLT-4 leukemia = test system: MOLT-4 leukemia
SF-295 CNS = test system: SF-295 CNS
BT-549 breast = test system: BT-549 breast
SK-MEL-5 melanoma = test system: SK-MEL-5 melanoma
SK-MEL-28 melanoma = test system: SK-MEL-28 melanoma
MDA-MB-435 = test system: MDA-MB-435
DU-145 prostate = test system: DU-145 prostate
LOX IMVI melanoma = test system: LOX IMVI melanoma
SF-539 CNS = test system: SF-539 CNS
SK-OV-3 ovarian = test system: SK-OV-3 ovarian
MDA-MB-231 breast = test system: MDA-MB-231 breast
NCI-H23 lung = test system: NCI-H23 lung
HOP-62 NSCLC = test system: HOP-62 NSCLC
A498 renal = test system: A498 renal
HL-60(TB) leukemia = test system: HL-60(TB) leukemia
OVCAR-3 ovarian = test system: OVCAR-3 ovarian

O=C1c2ccccc2-c2cn(Cc3ccccc3)c3cccc(c23)C1c1cccnc1 (configuration not stated)
45 µM: TGI (HS 578T breast)
26 µM: TGI (SNB-75 CNS)
9.44 µM: TGI (COLO 205 colon)
19.5 µM: TGI (HL-60(TB) leukemia)
33.4 µM: TGI (NCI-H522 lung)
6.13 µM: TGI (MDA-MB-435)
4.95 µM: TGI (OVCAR-3 ovarian)
> 50 µM: TGI (T-47D breast) | TGI (ACHN renal) | TGI (OVCAR-4 ovarian) | TGI (HCC-2998 colon) | TGI (786-0 renal) | TGI (KM12 colon) | TGI (SN12C renal) | TGI (RXF 393 renal) | TGI (HOP-92 NSCLC) | TGI (UO-31 renal) | TGI (MCF7 breast) | TGI (M14 melanoma) | TGI (UACC-257 melanoma) | TGI (EKVX NSCLC) | TGI (NCI/ADR-RES ovarian) | TGI (SNB-19 CNS) | TGI (NCI-H460 lung) | TGI (IGROV1 ovarian) | TGI (K-562 leukemia) | TGI (HT29 colon) | TGI (UACC-62 melanoma) | TGI (SF-268 CNS) | TGI (SR leukemia) | TGI (NCI-H226 lung) | TGI (SK-MEL-2 melanoma) | TGI (HCT-15 colon) | TGI (SW-620 colon) | TGI (PC-3 prostate) | TGI (A549 NSCLC) | TGI (CCRF-CEM leukemia) | TGI (MALME-3M melanoma) | TGI (OVCAR-5 ovarian) | TGI (CAKI-1 renal) | TGI (TK-10 renal) | TGI (HCT-116 colon) | TGI (OVCAR-8 ovarian) | TGI (MOLT-4 leukemia) | TGI (SF-295 CNS) | TGI (BT-549 breast) | TGI (SK-MEL-28 melanoma) | TGI (LOX IMVI melanoma) | TGI (SF-539 CNS) | TGI (SK-OV-3 ovarian) | TGI (MDA-MB-231 breast) | TGI (NCI-H23 lung) | TGI (HOP-62 NSCLC)
17.9 µM: TGI (SK-MEL-5 melanoma)
29.9 µM: TGI (A498 renal)
inactive: GI50 (T-47D breast) 2.32 µM | GI50 (ACHN renal) 12.1 µM | GI50 (OVCAR-4 ovarian) 6.15 µM | GI50 (HCC-2998 colon) 11.4 µM | GI50 (786-0 renal) 5.78 µM | GI50 (KM12 colon) 2.27 µM | GI50 (SN12C renal) 3.08 µM | GI50 (RXF 393 renal) 8.1 µM | GI50 (HOP-92 NSCLC) 2.74 µM | GI50 (SNB-75 CNS) 1.38 µM | GI50 (UO-31 renal) 5.2 µM | GI50 (MCF7 breast) 1.64 µM | GI50 (M14 melanoma) 3.89 µM | GI50 (UACC-257 melanoma) 11.2 µM | GI50 (EKVX NSCLC) 9.61 µM | GI50 (NCI/ADR-RES ovarian) 1.97 µM | GI50 (SNB-19 CNS) 14.3 µM | GI50 (NCI-H460 lung) 1.9 µM | GI50 (IGROV1 ovarian) 3.41 µM | GI50 (K-562 leukemia) 2.09 µM | GI50 (HT29 colon) 1.86 µM | GI50 (UACC-62 melanoma) 2.73 µM | GI50 (SF-268 CNS) 18.5 µM | GI50 (COLO 205 colon) 2.26 µM | GI50 (SR leukemia) 1.78 µM | GI50 (NCI-H522 lung) 2.28 µM | GI50 (NCI-H226 lung) > 50 µM | GI50 (SK-MEL-2 melanoma) 3.9 µM | GI50 (HCT-15 colon) 2.54 µM | GI50 (SW-620 colon) 1.88 µM | GI50 (PC-3 prostate) 5.94 µM | GI50 (A549 NSCLC) 3.2 µM | GI50 (CCRF-CEM leukemia) 2.62 µM | GI50 (MALME-3M melanoma) 10.2 µM | GI50 (OVCAR-5 ovarian) > 50 µM | GI50 (CAKI-1 renal) 2.74 µM | GI50 (TK-10 renal) 20.8 µM | GI50 (HCT-116 colon) 1.99 µM | GI50 (HS 578T breast) 2.92 µM | GI50 (OVCAR-8 ovarian) 9.3 µM | GI50 (MOLT-4 leukemia) 3.2 µM | GI50 (SF-295 CNS) 2.02 µM | GI50 (BT-549 breast) 6.62 µM | GI50 (SK-MEL-5 melanoma) 2.42 µM | GI50 (SK-MEL-28 melanoma) 4.12 µM | GI50 (MDA-MB-435) 1.32 µM | GI50 (DU-145 prostate) 4.27 µM | GI50 (LOX IMVI melanoma) 2.76 µM | GI50 (SF-539 CNS) 5.67 µM | GI50 (SK-OV-3 ovarian) 5.38 µM | GI50 (MDA-MB-231 breast) 4.18 µM | GI50 (NCI-H23 lung) 1.74 µM | GI50 (HOP-62 NSCLC) 3.44 µM | GI50 (A498 renal) 1.34 µM | GI50 (HL-60(TB) leukemia) 2.4 µM | GI50 (OVCAR-3 ovarian) 1.8 µM
40.5 µM: TGI (DU-145 prostate)
